Among the data in patent publication US9920032B2, “Heterocyclic compounds useful as pim kinase inhibitors” (Incyte Corporation, priority 2015, dated 2018) are IC50 values, retold here.

SMILES strings stand for the structures. pIC50: −log10 of the molar value. Bounds are passed on as bounds.

Common to all, as to format: biochemical
One test deals with Pim-3 (Homo sapiens (Human), UniProt Q86V86). In words: Pim-3 kinase assay. The note with it: 1 mM ATP; read-out: PIM3 IC50. The procedure, abridged:
(§1)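 Biotin-BAD peptide (0.05 μM) phosphorylated with 1 mM ATP by 2.5 pM Pim-1 or 1.25 pM Pim-3 in Tris pH 7.5/MgCl2/DTT buffer, 1 h at 25° C. EDTA stop; phospho-BAD (Ser112) antibody with streptavidin donor and Protein-A acceptor beads, 1 h dark at room temperature before AlphaScreen-type bead read.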

The target of the next test is Pim-1 (Homo sapiens (Human), UniProt P11309). In words: Pim-1 kinase assay. The following applies: 1 mM ATP; read-out: PIM1 IC50. The procedure, abridged: as §1
A further test has as its target Pim-2 (Homo sapiens (Human), UniProt Q9P1W9). In words: Pim-2 kinase assay. The note with it: 1 mM ATP; read-out: PIM2 IC50. The procedure, abridged:
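TR-FRET assay with 1 nM enzyme, 0.05 μM fluorescein-CREBtide and 1 mM ATP in Tris pH 7.5 buffer with MgCl2, DTT, BSA and Tween-20, run 2 h at 25° C. Stopped with EDTA and Tb-labelled anti-CREB pSer133 antibody, then read after 30 min at room temperature.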

Pim-2, sequence (Q9P1W9 whole entry): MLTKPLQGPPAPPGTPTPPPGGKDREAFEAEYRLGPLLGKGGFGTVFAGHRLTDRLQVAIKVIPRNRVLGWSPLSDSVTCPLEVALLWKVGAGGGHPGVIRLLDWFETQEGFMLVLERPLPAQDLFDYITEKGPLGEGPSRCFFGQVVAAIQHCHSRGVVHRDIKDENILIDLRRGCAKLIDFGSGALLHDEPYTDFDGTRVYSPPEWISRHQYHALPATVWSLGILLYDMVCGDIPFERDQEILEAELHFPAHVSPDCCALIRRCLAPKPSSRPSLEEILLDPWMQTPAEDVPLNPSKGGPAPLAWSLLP
Pim-1, sequence (P11309 whole entry): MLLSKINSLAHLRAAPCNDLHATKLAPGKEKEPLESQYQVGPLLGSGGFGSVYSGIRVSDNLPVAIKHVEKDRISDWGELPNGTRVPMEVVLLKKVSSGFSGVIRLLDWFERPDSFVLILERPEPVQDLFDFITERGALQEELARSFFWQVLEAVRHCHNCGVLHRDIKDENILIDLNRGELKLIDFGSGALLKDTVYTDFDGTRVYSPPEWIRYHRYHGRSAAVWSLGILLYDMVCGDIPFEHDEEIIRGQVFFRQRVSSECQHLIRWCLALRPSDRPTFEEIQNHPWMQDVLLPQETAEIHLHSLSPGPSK

Turning to `COc1ccc(N(C)c2cnc3c(C(=O)Nc4cnccc4[C@@H]4C[C@H](C)C[C@H](N)C4)ccc(F)c3c2)cc1` [Example 148, N-(4-((1R,3S,5S)-3-Amino-5-methylcyclohexyl)pyridin-3-yl)-5-fluoro-3-((4-methoxyphenyl)(methyl)amino)quinoline-8-carboxamide], the negative logarithm of the IC50 (pIC50) on Pim-3 is at least 8.00; on Pim-1, at least 8.00; on Pim-2 it was at least 7.00.
For `COCCN(C)c1cnc2c(C(=O)Nc3cnccc3[C@@H]3C[C@H](C)C[C@H](N)C3)ccc(F)c2c1` [Example 51, N-(4-((1R,3S,5S)-3-Amino-5-methylcyclohexyl)pyridin-3-yl)-5-fluoro-3-((2-methoxyethyl)(methyl)amino)quinoline-8-carboxamide], the negative-log IC50 (pIC50) on Pim-3 was at least 8.00; at Pim-1, at least 8.00; on Pim-2, 6.00 to 7.00.
As to `C[C@@H]1C[C@H](N)C[C@H](c2ccncc2NC(=O)c2ccc(F)c3cc(N4CCOC[C@@H]4C)cnc23)C1` [Example 33, N-(4-((1R,3S,5S)-3-Amino-5-methylcyclohexyl)pyridin-3-yl)-5-fluoro-3-((S)-3-methylmorpholino)quinoline-8-carboxamide], the pIC50 at Pim-3 was at least 8.00; on Pim-1 it was at least 8.00; at Pim-2 it was at least 7.00.
With `C[C@@H]1C[C@H](N)C[C@H](c2ccncc2NC(=O)c2ccc(F)c3cc(N4CCOC[C@H]4C)cnc23)C1` [Example 32, N-(4-((1R,3S,5S)-3-Amino-5-methylcyclohexyl)pyridin-3-yl)-5-fluoro-3-((R)-3-methylmorpholino)quinoline-8-carboxamide], the negative logarithm of the IC50 (pIC50) on Pim-3 was at least 8.00; at Pim-1 it was at least 8.00; at Pim-2, at least 7.00.
Consider `COC1CCCN(c2cnc3c(C(=O)Nc4cnccc4[C@@H]4C[C@H](C)C[C@H](N)C4)ccc(F)c3c2)CC1` (stereo partly drawn) [Example 101, N-(4-((1R,3S,5S)-3-Amino-5-methylcyclohexyl)pyridin-3-yl)-5-fluoro-3-(4-methoxyazepan-1-yl)quinoline-8-carboxamide], for which the pIC50 on Pim-3 is at least 8.00; at Pim-1, at least 8.00; at Pim-2, at least 7.00.
Turning to `C[C@@H]1C[C@H](N)C[C@H](c2ccncc2NC(=O)c2ccc(F)c3cc(N4CC[C@H](O)[C@@H](F)C4)cnc23)C1` [Example 108, N-(4-((1R,3S,5S)-3-Amino-5-methylcyclohexyl)pyridin-3-yl)-5-fluoro-3-((3S,4S)-3-fluoro-4-hydroxypiperidin-1-yl)quinoline-8-carboxamide], the negative-log IC50 (pIC50) on Pim-3 is at least 8.00; on Pim-1, at least 8.00; on Pim-2 it was at least 7.00.
For `CC1CCCCN1c1cc2c(F)ccc(C(=O)Nc3cnccc3[C@@H]3C[C@H](C)C[C@H](N)C3)c2nn1` (stereo partly drawn) [Example 93, N-{4-[(1R,3S,5S)-3-Amino-5-methylcyclohexyl]pyridin-3-yl}-5-fluoro-3-(2-methylpiperidin-1-yl)cinnoline-8-carboxamide], the negative logarithm of the IC50 (pIC50) was at least 8.00 at Pim-3, at least 8.00 at Pim-1 and at least 7.00 at Pim-2.
With `C[C@@H]1C[C@H](N)C[C@H](c2ccncc2NC(=O)c2ccc(F)c3cc(N4CCC(F)(F)CC4)cnc23)C1` [Example 40, N-(4-((1R,3S,5S)-3-Amino-5-methylcyclohexyl)pyridin-3-yl)-3-(4,4-difluoropiperidin-1-yl)-5-fluoroquinoline-8-carboxamide], the results for the pIC50 on Pim-3, on Pim-1 and at Pim-2 were at least 8.00, at least 8.00 and 6.00 to 7.00, respectively.
As to `C[C@@H]1C[C@H](N)C[C@H](c2ccncc2NC(=O)c2ccc(F)c3cc(N4C5CCC4COC5)cnc23)C1` [Example 77, N-(4-((1R,3S,5S)-3-Amino-5-methylcyclohexyl)pyridin-3-yl)-3-(3-oxa-8-azabicyclo[3.2.1]octan-8-yl)-5-fluoroquinoline-8-carboxamide], the values for the pIC50 on Pim-3, at Pim-1 and on Pim-2 were at least 8.00, at least 8.00 and at least 7.00, respectively.
For the compound `C[C@@H]1C[C@H](N)C[C@H](c2ccncc2NC(=O)c2ccc(F)c3cc(-c4ccccc4C#N)cnc23)C1` [Example 17, N-{4-[(1R,3S,5S)-3-Amino-5-methylcyclohexyl]pyridin-3-yl}-3-(2-cyanophenyl)-5-fluoroquinoline-8-carboxamide], the results for the pIC50 at Pim-3, at Pim-1 and on Pim-2 were at least 8.00, at least 8.00 and 6.00 to 7.00, respectively.
Consider `C[C@@H]1C[C@H](N)C[C@H](c2ccncc2NC(=O)c2ccc(F)c3cc(N4CCN5C(=O)CCC5C4)cnc23)C1` (stereo partly drawn) [Example 84, N-(4-((1R,3S,5S)-3-Amino-5-methylcyclohexyl)pyridin-3-yl)-5-fluoro-3-(6-oxohexahydropyrrolo[1,2-a]pyrazin-2(1H)-yl)quinoline-8-carboxamide], for which the negative-log IC50 (pIC50) is at least 8.00 at Pim-3, at least 8.00 at Pim-1 and 6.00 to 7.00 at Pim-2.
For `C[C@@H]1C[C@H](N)C[C@H](c2ccncc2NC(=O)c2cccc3cc(N4CCC[C@@H]4C)cnc23)C1` [Example 69, N-(4-((1R,3S,5S)-3-Amino-5-methylcyclohexyl)pyridin-3-yl)-3-((S)-2-methylpyrrolidin-1-yl)quinoline-8-carboxamide], the results for the negative logarithm of the IC50 (pIC50) at Pim-3, on Pim-1 and at Pim-2 were at least 8.00, at least 8.00 and at least 7.00, respectively.
For `C[C@@H]1C[C@H](N)C[C@H](c2ccncc2NC(=O)c2ccc(F)c3cc(N4CCN(C)C(=O)[C@@H]4C)cnc23)C1` [Example 112, N-(4-((1R,3S,5S)-3-Amino-5-methylcyclohexyl)pyridin-3-yl)-3-((5)-2,4-dimethyl-3-oxopiperazin-1-yl)-5-fluoroquinoline-8-carboxamide], the negative-log IC50 (pIC50) on Pim-3 was at least 8.00; at Pim-1, at least 8.00; at Pim-2 it was at least 7.00.
Take `C[C@@H]1C[C@H](N)C[C@H](c2ccncc2NC(=O)c2ccc(F)c3cc(N4CCc5nn(C)cc5C4)cnc23)C1` [Example 119, N-(4-((1R,3S,5S)-3-Amino-5-methylcyclohexyl)pyridin-3-yl)-5-fluoro-3-(2-methyl-6,7-dihydro-2H-pyrazolo[4,3-c]pyridin-5(4H)-yl)quinoline-8-carboxamide]: the negative-log IC50 (pIC50) at Pim-3 was at least 8.00; at Pim-1, at least 8.00; on Pim-2 it was at least 7.00.
On to `COC(=O)N1C[C@H]2C[C@@H]1CN2c1cnc2c(C(=O)Nc3cnccc3[C@@H]3C[C@H](C)C[C@H](N)C3)ccc(F)c2c1` [Example 90, (1R,4R)-Methyl 5-(8-(4-((1R,3S,5S)-3-amino-5-methylcyclohexyl)pyridin-3-ylcarbamoyl)-5-fluoroquinolin-3-yl)-2,5-diazabicyclo[2.2.1]heptane-2-carboxylate], for which the negative logarithm of the IC50 (pIC50) is at least 8.00 at Pim-3, at least 8.00 on Pim-1 and at least 7.00 on Pim-2.
Consider `C[C@@H]1C[C@H](N)C[C@H](c2ccncc2NC(=O)c2ccc(F)c3cc(N4C5CCCC4COC5)cnc23)C1` [Example 106, N-(4-((1R,3S,5S)-3-Amino-5-methylcyclohexyl)pyridin-3-yl)-3-(3-oxa-9-azabicyclo[3.3.1]nonan-9-yl)-5-fluoroquinoline-8-carboxamide], for which the pIC50 on Pim-3 was at least 8.00; at Pim-1, at least 8.00; at Pim-2 it was at least 7.00.
As for `C[C@@H]1C[C@H](N)C[C@H](c2ccncc2NC(=O)c2ccc(F)c3cc(N(C)C)cnc23)C1` [Example 25, N-{4-[(1R,3S,5S)-3-Amino-5-methylcyclohexyl]pyridin-3-yl}-3-(dimethylamino)-5-fluoroquinoline-8-carboxamide], the values for the pIC50 at Pim-3, on Pim-1 and on Pim-2 were at least 8.00, at least 8.00 and at least 7.00, respectively.
In the case of `C[C@@H]1C[C@H](N)C[C@H](c2ccncc2NC(=O)c2ccc(F)c3cc(N(C)CCF)cnc23)C1` [Example 22, N-{4-[(1R,3S,5S)-3-Amino-5-methylcyclohexyl]pyridin-3-yl}-5-fluoro-3-[(2-fluoroethyl)(methyl)amino]quinoline-8-carboxamide], the pIC50 at Pim-3 was at least 8.00; on Pim-1 it was at least 8.00; on Pim-2, at least 7.00.
As for `C[C@@H]1C[C@H](N)C[C@H](c2ccncc2NC(=O)c2ccc(F)c3cc(N4CCc5ccccc54)cnc23)C1` [Example 79, N-(4-((1R,3S,5S)-3-Amino-5-methylcyclohexyl)pyridin-3-yl)-5-fluoro-3-(indolin-1-yl)quinoline-8-carboxamide], the pIC50 was at least 8.00 on Pim-3, at least 8.00 at Pim-1 and 6.00 to 7.00 on Pim-2.
On to `C[C@@H]1C[C@H](N)C[C@H](c2ccncc2NC(=O)c2ccc(F)c3cc(N4CC(=O)N(C)C[C@H]4C)cnc23)C1` [Example 99, N-(4-((1R,3S,5S)-3-Amino-5-methylcyclohexyl)pyridin-3-yl)-3-((R)-2,4-dimethyl-5-oxopiperazin-1-yl)-5-fluoroquinoline-8-carboxamide], for which the results for the negative-log IC50 (pIC50) at Pim-3, at Pim-1 and on Pim-2 were at least 8.00, at least 8.00 and at least 7.00, respectively.
In the case of `C[C@@H]1C[C@H](N)C[C@H](c2ccncc2NC(=O)c2ccc(F)c3cc(N4CCCCC4C(F)F)cnc23)C1` (stereo partly drawn) [Example 58, N-(4-((1R,3S,5S)-3-Amino-5-methylcyclohexyl)pyridin-3-yl)-3-(2-(difluoromethyl)piperidin-1-yl)-5-fluoroquinoline-8-carboxamide], the negative-log IC50 (pIC50) at Pim-3 is at least 8.00; on Pim-1, at least 8.00; at Pim-2, at least 7.00.
